From patent US11566057B2, “Long-acting co-agonists of the glucagon and GLP-1 receptors” (Merck Sharp & Dohme Corp., priority 2017, dated 2023) come the findings set out here.

Molecules are shown by their SMILES. Numbered stars: 1 amine (or outer) side, 2 acyl side, 3 side chain; on linkers, the order of the positions; unused ones are H or OH. Square brackets hold non-standard residues; d marks the D form. Side chains are listed from the residue outwards. Peptide text beside a SMILES is read from it. * marks the point of attachment. Phe(4-CH2NH2) = NCc1ccc(C[C@H](N)C(=O)O)cc1; C18 diacid = O=C(O)CCCCCCCCCCCCCCCCC(=O)*; αMeW = C[C@](N)(Cc1c[nH]c2ccccc12)C(=O)O; C16 diacid = O=C(O)CCCCCCCCCCCCCCC(=O)*; γGlu = O=C(O)[C@H](CCC(=O)[*:2])N[*:1]; Met(O2) = CS(=O)(=O)CC[C@H](N)C(=O)O; αMeD = C[C@](N)(CC(=O)O)C(=O)O; AEEA = NCCOCCOCC(=O)O; Aib = CC(C)(N)C(=O)O

The target in the first test is T1, human GCGR (Homo sapiens, UniProt P47871).
T1 construct: expressed in transfected cells; growth medium holds Blasticidin and Hygromycin
T1 sequence (P47871 26-477): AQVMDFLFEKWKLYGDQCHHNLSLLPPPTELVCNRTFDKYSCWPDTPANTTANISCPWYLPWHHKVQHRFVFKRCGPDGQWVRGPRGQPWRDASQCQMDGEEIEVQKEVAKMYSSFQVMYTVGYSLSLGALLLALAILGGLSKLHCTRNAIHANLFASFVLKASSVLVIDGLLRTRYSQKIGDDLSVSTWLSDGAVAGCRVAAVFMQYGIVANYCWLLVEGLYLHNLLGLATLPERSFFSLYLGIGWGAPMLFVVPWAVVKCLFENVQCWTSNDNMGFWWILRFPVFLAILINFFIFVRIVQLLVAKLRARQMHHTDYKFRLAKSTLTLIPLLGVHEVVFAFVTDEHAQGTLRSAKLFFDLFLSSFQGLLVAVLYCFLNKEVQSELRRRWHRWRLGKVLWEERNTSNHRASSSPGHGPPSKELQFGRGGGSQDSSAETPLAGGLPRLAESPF
Nature of the test: cAMP activity assay at the Glucagon receptor (GCGR). Type of test: cell-based. Particulars: cells expressing human GCGR, cAMP production; buffer with or without 20% human serum (not stated which); read-out: GCGR EC50 human. Here is the method:
Activity of the peptides at the Glucagon receptor (GCGR) and GLP-1 receptor (GLP1R) was measured in a cAMP activity assay.
GCG/GLP-1 receptor co-agonist peptides were dissolved in 100% DMSO (dimethyl sulfoxide) and serially diluted to generate 10 point titrations. The peptide solutions were then transferred into 384-well assay plates (150 nL/well). Assay ready frozen cells expressing human GLP1R or human GCGR were suspended in growth media consisting of DMEM medium (GIBCO®), 10% FBS (GIBCO®), 1×NEAA(GIBCO®), 1×P/S (GIBCO®), 10 ug/mL Blasticidin (GIBCO®) and 200 μg/mL Hygromycin (GIBCO®). […] The cell suspensions (15 μL) were then added to the assay plates containing the peptide solutions (30,000 cells/well for human GCGR; 10,000 cells/well for human GLP1R). The cells were incubated for 1 hour at room temperature in the dark. Production of cAMP was determined using HitHunter™ cAMPXS kits (DiscoverX) following manufacturer protocol. The plates were incubated for overnight at room temperature in the dark. Luminescence was measured using an EnVision Multilabel plate reader (Perkin Elmer). Native GLP-1 and Glucagon (Bachem) are used as control peptides. EC50 values were calculated using uses a 4 parameter logistic fit based on the Levenberg-Marquardt algorithm.
On the technique in general: Changes in cAMP serve as a functional read-out for many G protein-coupled receptors.
Usually EC50 stands for the concentration that produces a half-maximal response. `CC(C)C[C@H](NC(=O)[C@H](Cc1ccc(O)cc1)NC(=O)[C@H](CCC(=O)O)NC(=O)[C@H](CO)NC(=O)[C@H](Cc1ccc(O)cc1)NC(=O)[C@H](CC(=O)O)NC(=O)[C@H](CO)NC(=O)[C@@H](NC(=O)[C@H](Cc1ccccc1)NC(=O)[C@@H](NC(=O)CNC(=O)[C@H](CCC(N)=O)NC(=O)C(C)(C)NC(=O)[C@@H](N)Cc1c[nH]cn1)[C@@H](C)O)[C@@H](C)O)C(=O)N[C@@H](CC(=O)O)C(=O)N[C@@H](CCCCN)C(=O)N[C@@H](CCCNC(=N)N)C(=O)N[C@@H](C)C(=O)N[C@@H](C)C(=O)N[C@@H](CCC(N)=O)C(=O)N[C@@H](CC(=O)O)C(=O)N[C@@H](Cc1ccccc1)C(=O)N[C@H](C(=O)N[C@@H](CCCCNC(=O)COCCOCCNC(=O)COCCOCCNC(=O)CC[C@H](NC(=O)CCCCCCCCCCCCCCCCC(=O)O)C(=O)O)C(=O)N[C@@H](Cc1c[nH]c2ccccc12)C(=O)N[C@@H](CC(C)C)C(=O)N[C@@H](CCS(C)(=O)=O)C(=O)N[C@@H](CC(=O)O)C(=O)N[C@H](C(N)=O)[C@@H](C)O)C(C)C` [TP700] (H-H[Aib]QGTFTSDYSEYLDKRAAQDFVK([AEEA-AEEA-γGlu-C18 diacid])WL[Met(O2)]DT-NH2): the EC50 is > 4.9 nM.

The test is the same for the next values; noted with them: ratio of GCGR EC50 to GLP1R EC50.
With `CC(C)C[C@H](NC(=O)[C@H](Cc1ccc(O)cc1)NC(=O)[C@H](CCCCN)NC(=O)[C@H](CO)NC(=O)[C@H](Cc1ccc(O)cc1)NC(=O)[C@H](CC(=O)O)NC(=O)[C@H](CO)NC(=O)[C@@H](NC(=O)[C@H](Cc1ccccc1)NC(=O)[C@@H](NC(=O)CNC(=O)[C@H](CCC(N)=O)NC(=O)C(C)(C)NC(=O)[C@@H](N)Cc1c[nH]cn1)[C@@H](C)O)[C@@H](C)O)C(=O)N[C@@H](CC(=O)O)C(=O)N[C@@H](C)C(=O)N[C@@H](CCCNC(=N)N)C(=O)N[C@@H](C)C(=O)N[C@@H](C)C(=O)N[C@@H](CCCCNC(=O)COCCOCCNC(=O)COCCOCCNC(=O)CC[C@H](NC(=O)CCCCCCCCCCCCCCC(=O)O)C(=O)O)C(=O)N[C@@H](CC(=O)O)C(=O)N[C@@H](Cc1ccccc1)C(=O)N[C@H](C(=O)N[C@@H](CCC(N)=O)C(=O)N[C@@](C)(Cc1c[nH]c2ccccc12)C(=O)N[C@@H](CC(C)C)C(=O)N[C@@H](CCS(C)(=O)=O)C(=O)N[C@@H](CC(=O)O)C(=O)N[C@H](C(N)=O)[C@@H](C)O)C(C)C` [TP630] (H-H[Aib]QGTFTSDYSKYLDARAAK([AEEA-AEEA-γGlu-C16 diacid])DFVQ[αMeW]L[Met(O2)]DT-NH2; N-terminus assumed), the “hGCGR/hGLP1R (hTone)” value is 3.0.

Turning to `CC(C)C[C@H](NC(=O)[C@H](Cc1ccc(O)cc1)NC(=O)[C@H](CCCCN)NC(=O)[C@H](CO)NC(=O)[C@H](Cc1ccc(O)cc1)NC(=O)[C@H](CC(=O)O)NC(=O)[C@H](CO)NC(=O)[C@@H](NC(=O)[C@H](Cc1ccccc1)NC(=O)[C@@H](NC(=O)CNC(=O)[C@H](CCC(N)=O)NC(=O)C(C)(C)NC(=O)[C@@H](N)Cc1c[nH]cn1)[C@@H](C)O)[C@@H](C)O)C(=O)N[C@@H](CC(=O)O)C(=O)N[C@@H](C)C(=O)N[C@@H](CCCNC(=N)N)C(=O)N[C@@H](C)C(=O)N[C@@H](C)C(=O)N[C@@H](CCCCNC(=O)COCCOCCNC(=O)COCCOCCNC(=O)CC[C@H](NC(=O)CCCCCCCCCCCCCCCCC(=O)O)C(=O)O)C(=O)N[C@@H](CC(=O)O)C(=O)N[C@@H](Cc1ccccc1)C(=O)N[C@H](C(=O)N[C@@H](CCC(N)=O)C(=O)N[C@@](C)(Cc1c[nH]c2ccccc12)C(=O)N[C@@H](CC(C)C)C(=O)N[C@@H](CCS(C)(=O)=O)C(=O)N[C@@](C)(CC(=O)O)C(=O)N[C@H](C(N)=O)[C@@H](C)O)C(C)C` [TP632] (H-H[Aib]QGTFTSDYSKYLDARAAK([AEEA-AEEA-γGlu-C18 diacid])DFVQ[αMeW]L[Met(O2)][αMeD]T-NH2), the “hGCGR/hGLP1R (hTone)” value was 0.9.

With `CC(C)C[C@H](NC(=O)[C@H](Cc1ccc(O)cc1)NC(=O)[C@H](CCCCN)NC(=O)[C@H](CO)NC(=O)[C@H](Cc1ccc(O)cc1)NC(=O)[C@H](CC(=O)O)NC(=O)[C@H](CO)NC(=O)[C@@H](NC(=O)[C@H](Cc1ccccc1)NC(=O)[C@@H](NC(=O)CNC(=O)[C@H](CCC(N)=O)NC(=O)C(C)(C)NC(=O)[C@@H](N)Cc1c[nH]cn1)[C@@H](C)O)[C@@H](C)O)C(=O)N[C@@H](CC(=O)O)C(=O)N[C@@H](C)C(=O)N[C@@H](CCCNC(=N)N)C(=O)N[C@@H](C)C(=O)N[C@@H](C)C(=O)N[C@@H](CCC(N)=O)C(=O)N[C@@H](CC(=O)O)C(=O)N[C@@H](Cc1ccccc1)C(=O)N[C@H](C(=O)N[C@@H](Cc1ccc(CNC(=O)CC[C@H](NC(=O)CCCCCCCCCCCCCCCCC(=O)O)C(=O)O)cc1)C(=O)N[C@@H](Cc1c[nH]c2ccccc12)C(=O)N[C@@H](CC(C)C)C(=O)N[C@@H](CC(C)C)C(=O)N[C@@H](CC(=O)O)C(=O)N[C@H](C(N)=O)[C@@H](C)O)C(C)C` [TP639] (H-H[Aib]QGTFTSDYSKYLDARAAQDFV[Phe(4-CH2NH2)]([γGlu-C18 diacid])WLLDT-NH2; N-terminus assumed), the “hGCGR/hGLP1R (hTone)” value amounted to 1.6.

With `CC(C)C[C@H](NC(=O)[C@H](CC(C)C)NC(=O)[C@H](CCCCN)NC(=O)[C@H](CO)NC(=O)[C@H](Cc1ccc(O)cc1)NC(=O)[C@H](CC(=O)O)NC(=O)[C@H](CO)NC(=O)[C@@H](NC(=O)[C@H](Cc1ccccc1)NC(=O)[C@@H](NC(=O)CNC(=O)[C@H](CCC(N)=O)NC(=O)C(C)(C)NC(=O)[C@@H](N)Cc1c[nH]cn1)[C@@H](C)O)[C@@H](C)O)C(=O)N[C@@H](CC(=O)O)C(=O)N[C@@H](C)C(=O)N[C@@H](CCCNC(=N)N)C(=O)N[C@@H](C)C(=O)N[C@@H](C)C(=O)N[C@@H](CCCCNC(=O)COCCOCCNC(=O)COCCOCCNC(=O)CC[C@H](NC(=O)CCCCCCCCCCCCCCCCC(=O)O)C(=O)O)C(=O)N[C@@H](CC(=O)O)C(=O)N[C@@H](Cc1ccccc1)C(=O)N[C@H](C(=O)N[C@@H](CCC(N)=O)C(=O)N[C@@H](Cc1c[nH]c2ccccc12)C(=O)N[C@@H](CC(C)C)C(=O)N[C@@H](CCS(C)(=O)=O)C(=O)N[C@@](C)(CC(=O)O)C(=O)N[C@H](C(N)=O)[C@@H](C)O)C(C)C` [TP640] (H-H[Aib]QGTFTSDYSKLLDARAAK([AEEA-AEEA-γGlu-C18 diacid])DFVQWL[Met(O2)][αMeD]T-NH2), the “hGCGR/hGLP1R (hTone)” value was 0.8.

Take `CC(C)C[C@H](NC(=O)[C@H](Cc1c[nH]c2ccccc12)NC(=O)[C@H](CCC(N)=O)NC(=O)[C@@H](NC(=O)[C@H](Cc1ccccc1)NC(=O)[C@H](CC(=O)O)NC(=O)[C@H](CCC(N)=O)NC(=O)[C@H](C)NC(=O)[C@H](C)NC(=O)[C@H](CCCNC(=N)N)NC(=O)C(C)(C)NC(=O)[C@H](CC(=O)O)NC(=O)[C@H](CC(C)C)NC(=O)[C@H](Cc1ccc(O)cc1)NC(=O)[C@H](CCCCN)NC(=O)[C@H](CO)NC(=O)[C@H](Cc1ccc(O)cc1)NC(=O)[C@H](CC(=O)O)NC(=O)[C@H](CO)NC(=O)[C@@H](NC(=O)[C@H](Cc1ccccc1)NC(=O)[C@@H](NC(=O)CNC(=O)[C@H](CCC(N)=O)NC(=O)[C@@H](CO)NC(=O)[C@@H](N)Cc1c[nH]cn1)[C@@H](C)O)[C@@H](C)O)C(C)C)C(=O)N[C@@H](CC(C)C)C(=O)N[C@@H](CCCCNC(=O)COCCOCCNC(=O)COCCOCCNC(=O)CC[C@H](NC(=O)CCCCCCCCCCCCCCCCC(=O)O)C(=O)O)C(=O)N[C@H](C(=O)N[C@@H](CCCCN)C(=O)N[C@@H](CCC(N)=O)C(=O)O)[C@@H](C)O` [TP685] (H-H[dS]QGTFTSDYSKYLD[Aib]RAAQDFVQWLLK([AEEA-AEEA-γGlu-C18 diacid])TKQ-OH; N-terminus and C-terminus assumed): the “hGCGR/hGLP1R (hTone)” value amounted to 7.9.
